We go through ten compounds from patent publication US5130117A, “Radiohalogenated benzazepine derivatives and method of imaging dopamine receptors therewith” (Trustees of the University of Pennsylvania, priority 1991, dated 1992).

One data set has as its system D-1 receptors. In words: Activity of optically resolved isomers of FISCH. The note with it: optical resolution of FISCH isomers. The text has this: The compounds of this invention can exist as either R- or S- isomers. It is important to note that the aforementioned data were obtained using a racemic mixture of FISCH.
Data set [1] addresses central D-1 dopamine receptors. To be noted: cited from earlier work; for Kd: in vitro binding, rat striatum tissue preparation.
Another data set concerns D-1 receptor. The note with it: ^11 C label, PET, human brain; cited from earlier work.
Data set [2] deals with T1, dopamine D-1 receptor (rat striatal homogenate) (Rattus norvegicus, UniProt P18901).
T1 construct: Striatal tissues were excised, pooled and homogenized; from tissue; host or cells: striatum of male Sprague-Dawley rats
The experiment in a line: Saturation binding of radioiodinated ligand to rat striatal homogenate. To be noted: for affinity to rat striatal homogenate / Kd compared with [^125 I]IBZP (R-(+), active form): in words; for Kd compared with [^125 I]IBZP (R-(+), active form): similar conditions; for Kd: specific binding, rat striatal homogenate, racemic mixture. As to the method:
(§1) Male Sprague-Dawley rats (200-250g) were decapitated, and the brains were removed and placed in ice. Striatal tissues were excised, pooled and homogenized in 100 volumes(w/v) of ice-cold Tris-HCl buffer (50 mM), pH 7.4. The homogenates were centrifuged at 20,000×g for 20 min. The resultant pellets were rehomogenized in the same buffer and centrifuged again. The final pellets were resuspended in assay buffer containing: 50 mM Tris buffer pH 7.4, 120 mM NaCl, 5 mM KCl, 2mM CaCl2 and 1 mM MgCl2.
(§2) The binding assays were performed by incubating 50 μl of tissue preparations containing 40-60μg of protein with appropriate amounts of [^125 l]FISCH ligand and competitors in a total volume of 0.2 ml of the assay buffer. After an incubation period of 20 min at 37° C. (with stirring), the samples were rapidly filtered in the cell harvester (Brandel M-24R) under vacuum through Whatman GF/B glass fiber filters pretreated with 0.2% protamine sulfate and washed with 3×5ml of cold (4° C.) 50 mM Tris-HCl buffer, pH 7.4. […] The filters were counted in a gamma counter (Beckman 5500) at an efficiency of 70%.
(§3) Both Scatchard and competition experiments were analyzed using the iterative non-linear least squares curve-fitting program LIGAND.

Data set [3] has as its target T2, dopamine D-1 receptor (rat striatal membranes) (Rattus norvegicus, UniProt P18901).
T2 construct: Striatal tissues were excised, pooled and homogenized; from tissue; host or cells: striatum of male Sprague-Dawley rats
In words: Competition: inhibition of [^125 I]TISCH binding to rat striatal membranes. To be noted: for Ki: [^125 I]TISCH, rat striatal membranes, read-out: ki (mean + SEM). As for the experimental part: as §1, §2, §3

Data set [4] addresses T2, dopamine D-1 receptor (rat striatal membranes). The experiment in a line: Competition: inhibition of [^125 I]FISCH binding to rat striatal membranes. To be noted: for Ki: 0.15-0.30 nM [^125 I]FISCH, rat striatal membranes, three to five determinations, read-out: ki (mean + SEM). As to the method:
indicated compounds in 7-11 concentrations and of membrane preparation
from rat striatum. Each value represenets the mean ± SEM of three to
as §1, §2, §3

In data set [5] the test system is D-1 dopamine receptors. The note with it: cited from earlier work.
The conditions of data set [6]: cited from earlier work.
Data set [7] concerns D-1 dopamine receptors. To be noted: rat, in vivo; for striatum/cerebellum (ST/CB) ratio: iv.
Protocol: Regional brain distribution in rats was obtained after an iv injection of [^125 l]FISCH. By dissecting, weighing and counting samples from different brain regions (cortex, striatum, hippocampus and cerebellum), % dose/gram of samples was calculated by comparing the sample counts with the counts of the diluted initial dose. The uptake ratio of each region was obtained by dividing % dose/gram of each region with that of the cerebellum.
Data set [8] is described as follows: Biodistribution in rats of [^125 I]FISCH after iv injection. Type of data set: in vivo, male Sprague Dawley rats. The note with it: rat; for brain uptake: iv. As to the method: Biodistribution of [^125 l]FISCH was studied in male Sprague Dawley rats (225-300g) which were allowed free access to food and water. While under halothane anesthesia, 0.2 ml of a saline solution containing [^125 l]FISCH was injected directly into the femoral vein, and the rats were sacrificed at various time points post injection by cardiac excision under halothane anesthesia. The organs of interest were removed, weighed and radioactivity was counted using a Beckman gamma automatic counter (Model 4000). The percent dose per organ was calculated by a comparison of the tissue counts to suitably diluted aliquots of the injected material. Total activities of blood and muscle were calculated assuming that they are 7% and 40% of total body weight, respectively.

“Also recorded” adds a separate entry of the source. Counter-ions that a name gives are not always drawn. Like-named read-outs stand apart in the source and are kept apart here.

T2 sequence (P18901 whole entry): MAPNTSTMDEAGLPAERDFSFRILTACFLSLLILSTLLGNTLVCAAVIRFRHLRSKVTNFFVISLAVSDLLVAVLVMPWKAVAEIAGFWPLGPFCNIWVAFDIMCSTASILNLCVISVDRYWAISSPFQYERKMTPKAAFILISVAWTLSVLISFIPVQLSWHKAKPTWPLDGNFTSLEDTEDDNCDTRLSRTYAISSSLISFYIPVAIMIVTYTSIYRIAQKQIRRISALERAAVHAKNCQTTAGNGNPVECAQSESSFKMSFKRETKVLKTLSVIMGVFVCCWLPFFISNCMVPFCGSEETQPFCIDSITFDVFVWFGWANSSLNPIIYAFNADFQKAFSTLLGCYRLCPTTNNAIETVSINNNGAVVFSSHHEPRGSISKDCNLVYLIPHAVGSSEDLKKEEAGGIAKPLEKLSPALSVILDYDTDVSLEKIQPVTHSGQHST
T1 sequence (P18901 whole entry): as above

For the compound `CN1CCc2cc(Cl)c(O)cc2[C@@H](c2ccc(I)cc2)C1` [R+ isomer], the activity of isomer result in the data set on D-1 receptors is “active”.
`CN1CCc2cc(Cl)c(O)cc2[C@@H](c2ccccc2)C1` [SCH-23390, R-(+)-8-chloro-2,3,4,5-tetrahydro-3-methyl5-phenyl-1H-3-benzazepine-7-ol]: in [1], the equilibrium dissociation constant (Kd) (usually the free concentration of one partner at which half of the binding sites on the other are occupied at equilibrium, for simple one-to-one binding) is 0.36 nM. Further, the regional brain concentration entry in the data set on D-1 receptor is given as “highest concentration in the basal ganglia area”.
On to `CN1CCc2cc(Cl)c(O)cc2C(c2cccc(I)c2)C1` (stereo not drawn) [TISCH], for which, in [2], the “affinity to rat striatal homogenate” value is on record as “high affinity”; the “Kd compared with [^125 I]IBZP (R-(+), active form)” value is “comparable”; the Kd worked out at 0.35 nM. In addition, the inhibition constant (Ki) (commonly a measure of affinity in units of concentration, obtained from inhibition or displacement) in data set [3] was 0.55 ± 0.05 nM. Moreover, the “selectivity for dopamine D-1 receptor” value in data set [3] (in words, from Tables 2 and 3) is “high selectivity”.
For `CN1CCc2cc(I)c(O)cc2C(c2ccccc2)C1` (racemic) [(±) IBZP, reference compound], the Ki in data set [4] worked out at 13.4 ± 0.54 nM.
The same measure, in the same setting: the result for `COc1cccc(OC)c1OCCNCC1COc2ccccc2O1` (stereo not drawn) [WB 4101, 2(2,6-dimethoxyphenoxyethyl)-aminomethyl-1,4-benzodioxane hydrochloride, reference compound] reads 1270 ± 203 nM.
With `CN1CCc2cc(Cl)c(O)cc2C(c2ccc(I)cc2)C1` (racemic) [FISCH, (±)-8-chloro-2,3,4,5-tetrahydro-3-methyl-5-(4'-[^125 I]iodophenyl) -1H-3-benzazepine-7-ol], the Kd in [2] was 1.43 nM. The Ki was 2.07 ± 0.35 nM in data set [3] and 1.71 ± 0.17 nM in data set [4].
As to `CN1CCc2cc(Cl)c(O)cc2[C@H](c2ccc(I)cc2)C1` [S- isomer], the activity of isomer entry in the data set on D-1 receptors was “inactive”.
Turning to `CN1CCc2cc(I)c(O)cc2[C@@H](c2ccccc2)C1` [IBZP], the “blockade of specific uptake regions by pretreatment with SCH-23390” value in the data set on D-1 dopamine receptors [5] (in vivo autoradiography) is recorded as “can be blocked by pretreatment with SCH-23390”. Further, the “regional distribution in rat brain (caudate putamen, accumbens nucleus and substantia nigra)” value with D-1 dopamine receptors [5] (in vivo autoradiography) is recorded as “high uptake”. The “uptake ratio of striatum/cerebellum” value in the data set with D-1 dopamine receptors [5] (rat, thirty seconds after injection) was 1.1; with D-1 dopamine receptors [5] (rat, two hours after injection), 5.3. For the same compound, the “striatum/cerebellum uptake ratio, change with time” value in the data set on D-1 dopamine receptors [5] (rat) is given as “increased with time”. In addition, the “in vivo and in vitro stability” value in data set [6] (in words, deiodination) is “poor in vivo and in vitro stability”. Moreover, the “retention time in the brain” value in data set [6] (in words) is “short retention time in the brain”. Moreover, the brain uptake in data set [6] (rat, iv, 2 minutes post injection) is reported as 2.7 %dose/organ; in data set [6] (rat, iv, 15 minutes post injection), 1.2 %dose/organ; in data set [6] (rat, iv, 30 minutes post injection), 0.8 %dose/organ; in data set [6] (rat, iv, 60 minutes (one hour) post injection), 0.26 %dose/organ. In addition, in data set [6] (rat, iv), the brain localization result is reported as “good localization in rat brains”. The thyroid uptake entry was “high at later time points” in data set [6] (rat, later time points) and 0.1% in data set [6] (rat, one hour post injection). In addition, in [1], the Kd is 0.7 nM. Further, the “selectivity/specificity for central D-1 dopamine receptors” value in data set [1] (in words) is “high specificity for central D-1 dopamine receptors”.
Regarding `CN1CCc2ccc(O)cc2[C@@H](c2ccccc2)C1` [SKF-83692], in data set [1], the Kd was 197 nM.
For `CN1CCc2cc(Cl)c(O)cc2C(c2ccc([125I])cc2)C1` (racemic) [FISCH, (±)-8-chloro-2,3,4,5-tetrahydro-3-methyl-5-(4'-[^125 I]iodophenyl) -1H-3-benzazepine-7-ol], the nonspecific binding result in data set [2] (at Kd, rat striatum, FIG. 2) is “approximately 15%”. In [2], the “affinity to rat striatal homogenate” value is reported as “high affinity” and the “Kd compared with [^125 I]IBZP (R-(+), active form)” value is listed as “comparable”. For the same compound, in the data set on D-1 dopamine receptors [7], the “ST/CB ratio, change with time” value is on record as “dramatic increase with time”. The “striatum/cerebellum (ST/CB) ratio” value with D-1 dopamine receptors [7] (2 min) is recorded as 1.24. The “striatum/cerebellum (ST/CB) ratio” value in the data set with D-1 dopamine receptors [7] (15 min) is reported as 1.80. Further, in the data set with D-1 dopamine receptors [7] (60 min), the “striatum/cerebellum (ST/CB) ratio” value stood at 2.47. The lung clearance entry in [8] (fifteen and sixty minutes) is “rapid clearance”. Besides, in data set [8] (in words), the “brain uptake / blood-brain barrier passage” value was “good brain uptake in rats; also recorded: passes through the blood-brain barrier with ease” and the “in vivo stability (deiodination) compared with [^125 I]IBZP” value is “better in vivo stability”. The lung uptake entry in data set [8] (initial) was “High initial uptake”. Moreover, the brain uptake in [8] (one hour after injection) is on record as 0.55 % dose/organ. Moreover, the brain uptake in data set [8] (two minutes after injection) amounted to 2.27 % dose/organ. Moreover, in data set [8] (one hour post injection), the “brain retention compared with [^125 I]IBZP” value is recorded as “much better” and the thyroid uptake was 0.04%. Also, the liver uptake result in [8] (throughout the first hour) is “remains high throughout the first hour”. In data set [4] (in words, from Tables 2 and 3), the “selectivity for dopamine D-1 receptor” value was “high selectivity”.
